Reference: ChEMBL document CHEMBL3882729, “Receptor-type kinase modulators and methods of use” (2009)

Experiments:
Ephrin type-A receptor 2 = Ephrin type-A receptor 2 (Homo sapiens, UniProt P29317); experiment: Inhibition of recombinant human N-terminal His6-tagged EphA2 (N598 to R890 residues) expressed in baculovirus using poly-EY as substrate after 180 mins by luciferase coupled chemiluminescence assay
Ephrin type-B receptor 4 = target: T1, Ephrin type-B receptor 4 (Homo sapiens, UniProt P54760); experiment: Inhibition of recombinant human N-terminal His6-tagged EphB4 kinase domain (E605 to E890 residues) expressed in baculovirus using poly-AEKY as substrate after 150 mins in presence of gamma33P-ATP by liquid scintillation spectrometry
T1 sequence (P54760 whole entry): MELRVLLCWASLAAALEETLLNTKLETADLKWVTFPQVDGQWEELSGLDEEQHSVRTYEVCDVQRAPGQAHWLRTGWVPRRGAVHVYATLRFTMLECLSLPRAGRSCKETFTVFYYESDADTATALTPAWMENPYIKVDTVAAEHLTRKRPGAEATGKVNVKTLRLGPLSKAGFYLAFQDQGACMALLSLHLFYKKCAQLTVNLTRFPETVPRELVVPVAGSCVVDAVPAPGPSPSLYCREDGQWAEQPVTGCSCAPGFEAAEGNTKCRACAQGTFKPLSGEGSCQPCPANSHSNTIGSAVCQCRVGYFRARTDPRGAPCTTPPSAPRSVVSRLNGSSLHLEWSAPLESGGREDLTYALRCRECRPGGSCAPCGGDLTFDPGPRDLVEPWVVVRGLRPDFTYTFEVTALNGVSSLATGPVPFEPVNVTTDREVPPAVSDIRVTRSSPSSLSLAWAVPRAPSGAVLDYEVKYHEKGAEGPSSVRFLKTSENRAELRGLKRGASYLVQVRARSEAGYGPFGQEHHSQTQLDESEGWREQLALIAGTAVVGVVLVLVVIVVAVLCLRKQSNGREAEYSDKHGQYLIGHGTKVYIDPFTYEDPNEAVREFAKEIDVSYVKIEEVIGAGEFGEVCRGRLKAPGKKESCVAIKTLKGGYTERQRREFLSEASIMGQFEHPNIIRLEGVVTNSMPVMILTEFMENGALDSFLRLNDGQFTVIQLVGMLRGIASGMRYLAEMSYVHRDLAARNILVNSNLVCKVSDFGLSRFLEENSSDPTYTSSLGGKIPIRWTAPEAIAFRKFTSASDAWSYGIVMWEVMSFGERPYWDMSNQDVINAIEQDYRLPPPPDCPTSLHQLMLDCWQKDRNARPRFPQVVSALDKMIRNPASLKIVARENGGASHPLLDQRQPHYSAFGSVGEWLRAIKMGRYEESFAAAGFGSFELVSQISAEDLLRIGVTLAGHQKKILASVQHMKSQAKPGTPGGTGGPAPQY

[1] = target: Receptor tyrosine-protein kinase erbB-2 (Homo sapiens, UniProt P04626); experiment: Inhibition of recombinant human N-terminal GST His6-tagged thrombin cleavage site-fused ErbB2 kinase domain (Q679 to V1255 residues) expressed in baculovirus infected insect Sf9 cells using biotinylated poly-EY as substrate after 60 mins by alphascreen assay
Sequence of Receptor tyrosine-protein kinase erbB-2 (P04626 whole entry, the tested form may be a part): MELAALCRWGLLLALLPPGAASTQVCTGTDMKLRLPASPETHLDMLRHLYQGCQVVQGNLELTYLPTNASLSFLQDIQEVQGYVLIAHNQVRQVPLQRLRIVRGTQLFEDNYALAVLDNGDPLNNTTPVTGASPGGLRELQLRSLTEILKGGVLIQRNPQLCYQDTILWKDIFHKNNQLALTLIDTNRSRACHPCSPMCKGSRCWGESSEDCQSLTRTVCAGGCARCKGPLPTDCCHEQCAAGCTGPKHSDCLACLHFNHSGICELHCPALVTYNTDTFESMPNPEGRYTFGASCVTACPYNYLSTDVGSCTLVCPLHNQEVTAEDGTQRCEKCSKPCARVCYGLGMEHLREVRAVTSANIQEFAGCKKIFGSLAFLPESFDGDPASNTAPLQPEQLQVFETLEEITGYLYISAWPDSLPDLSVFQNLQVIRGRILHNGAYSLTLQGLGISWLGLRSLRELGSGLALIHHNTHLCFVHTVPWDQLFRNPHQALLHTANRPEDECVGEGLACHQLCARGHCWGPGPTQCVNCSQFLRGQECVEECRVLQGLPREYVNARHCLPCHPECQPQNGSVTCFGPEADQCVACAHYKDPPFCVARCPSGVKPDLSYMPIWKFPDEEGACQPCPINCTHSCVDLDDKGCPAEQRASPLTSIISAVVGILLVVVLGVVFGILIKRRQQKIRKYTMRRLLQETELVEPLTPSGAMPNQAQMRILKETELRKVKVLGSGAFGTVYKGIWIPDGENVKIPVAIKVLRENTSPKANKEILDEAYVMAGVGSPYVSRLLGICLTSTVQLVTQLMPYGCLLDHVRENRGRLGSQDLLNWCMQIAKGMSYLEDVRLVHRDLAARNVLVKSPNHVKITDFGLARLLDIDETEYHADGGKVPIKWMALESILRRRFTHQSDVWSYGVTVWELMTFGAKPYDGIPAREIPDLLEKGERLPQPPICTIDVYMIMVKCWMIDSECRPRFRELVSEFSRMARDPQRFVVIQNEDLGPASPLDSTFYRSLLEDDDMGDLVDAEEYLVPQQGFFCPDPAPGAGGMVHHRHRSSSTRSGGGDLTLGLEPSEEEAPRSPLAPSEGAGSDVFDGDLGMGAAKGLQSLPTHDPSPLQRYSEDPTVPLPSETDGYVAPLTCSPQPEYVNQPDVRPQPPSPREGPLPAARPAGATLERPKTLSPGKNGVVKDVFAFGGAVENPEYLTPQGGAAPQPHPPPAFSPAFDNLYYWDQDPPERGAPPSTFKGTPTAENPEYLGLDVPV

[2] = target: Vascular endothelial growth factor receptor 2 (Homo sapiens, UniProt P35968); experiment: Inhibition of recombinant human N-terminal GST-fused KDR (D807 to V1356 residues) expressed in baculovirus infected […] insect Sf9 cells using poly-EY as substrate after 240 mins by luciferase coupled chemiluminescence assay
Sequence of Vascular endothelial growth factor receptor 2 (P35968 whole entry, the tested form may be a part): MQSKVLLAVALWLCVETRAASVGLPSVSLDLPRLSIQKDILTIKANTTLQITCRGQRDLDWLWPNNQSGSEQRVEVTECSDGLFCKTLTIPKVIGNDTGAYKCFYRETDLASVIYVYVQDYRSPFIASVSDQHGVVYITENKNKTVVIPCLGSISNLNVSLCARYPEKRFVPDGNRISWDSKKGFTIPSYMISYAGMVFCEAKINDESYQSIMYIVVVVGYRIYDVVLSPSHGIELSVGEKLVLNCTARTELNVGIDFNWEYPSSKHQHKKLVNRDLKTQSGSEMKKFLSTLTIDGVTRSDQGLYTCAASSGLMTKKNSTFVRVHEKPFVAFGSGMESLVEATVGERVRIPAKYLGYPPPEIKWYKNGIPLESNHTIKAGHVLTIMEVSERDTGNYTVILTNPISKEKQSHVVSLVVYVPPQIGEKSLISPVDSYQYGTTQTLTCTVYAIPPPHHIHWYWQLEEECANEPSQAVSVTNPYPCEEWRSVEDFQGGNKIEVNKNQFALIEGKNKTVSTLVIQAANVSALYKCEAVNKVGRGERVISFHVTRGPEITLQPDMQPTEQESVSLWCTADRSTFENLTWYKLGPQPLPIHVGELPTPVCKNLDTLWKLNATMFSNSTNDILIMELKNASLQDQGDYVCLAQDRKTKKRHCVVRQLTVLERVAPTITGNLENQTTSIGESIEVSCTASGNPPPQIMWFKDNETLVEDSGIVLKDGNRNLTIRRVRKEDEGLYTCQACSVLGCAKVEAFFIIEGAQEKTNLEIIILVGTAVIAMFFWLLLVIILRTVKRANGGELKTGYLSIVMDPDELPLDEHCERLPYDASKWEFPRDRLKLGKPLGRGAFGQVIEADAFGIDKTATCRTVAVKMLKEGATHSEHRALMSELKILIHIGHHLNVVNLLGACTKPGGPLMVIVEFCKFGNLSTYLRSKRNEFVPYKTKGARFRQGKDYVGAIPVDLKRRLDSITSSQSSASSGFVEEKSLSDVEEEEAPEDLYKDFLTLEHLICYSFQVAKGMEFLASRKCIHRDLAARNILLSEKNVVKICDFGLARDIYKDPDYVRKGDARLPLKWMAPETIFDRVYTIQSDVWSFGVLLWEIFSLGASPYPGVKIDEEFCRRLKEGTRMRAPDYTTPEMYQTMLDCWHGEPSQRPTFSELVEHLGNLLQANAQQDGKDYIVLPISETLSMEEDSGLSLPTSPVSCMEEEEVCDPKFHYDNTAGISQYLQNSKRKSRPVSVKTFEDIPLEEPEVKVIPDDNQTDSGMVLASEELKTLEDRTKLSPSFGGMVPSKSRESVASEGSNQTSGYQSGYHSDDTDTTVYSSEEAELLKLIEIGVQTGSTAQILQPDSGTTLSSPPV

Sequence of Ephrin type-A receptor 2 (P29317 whole entry, the tested form may be a part): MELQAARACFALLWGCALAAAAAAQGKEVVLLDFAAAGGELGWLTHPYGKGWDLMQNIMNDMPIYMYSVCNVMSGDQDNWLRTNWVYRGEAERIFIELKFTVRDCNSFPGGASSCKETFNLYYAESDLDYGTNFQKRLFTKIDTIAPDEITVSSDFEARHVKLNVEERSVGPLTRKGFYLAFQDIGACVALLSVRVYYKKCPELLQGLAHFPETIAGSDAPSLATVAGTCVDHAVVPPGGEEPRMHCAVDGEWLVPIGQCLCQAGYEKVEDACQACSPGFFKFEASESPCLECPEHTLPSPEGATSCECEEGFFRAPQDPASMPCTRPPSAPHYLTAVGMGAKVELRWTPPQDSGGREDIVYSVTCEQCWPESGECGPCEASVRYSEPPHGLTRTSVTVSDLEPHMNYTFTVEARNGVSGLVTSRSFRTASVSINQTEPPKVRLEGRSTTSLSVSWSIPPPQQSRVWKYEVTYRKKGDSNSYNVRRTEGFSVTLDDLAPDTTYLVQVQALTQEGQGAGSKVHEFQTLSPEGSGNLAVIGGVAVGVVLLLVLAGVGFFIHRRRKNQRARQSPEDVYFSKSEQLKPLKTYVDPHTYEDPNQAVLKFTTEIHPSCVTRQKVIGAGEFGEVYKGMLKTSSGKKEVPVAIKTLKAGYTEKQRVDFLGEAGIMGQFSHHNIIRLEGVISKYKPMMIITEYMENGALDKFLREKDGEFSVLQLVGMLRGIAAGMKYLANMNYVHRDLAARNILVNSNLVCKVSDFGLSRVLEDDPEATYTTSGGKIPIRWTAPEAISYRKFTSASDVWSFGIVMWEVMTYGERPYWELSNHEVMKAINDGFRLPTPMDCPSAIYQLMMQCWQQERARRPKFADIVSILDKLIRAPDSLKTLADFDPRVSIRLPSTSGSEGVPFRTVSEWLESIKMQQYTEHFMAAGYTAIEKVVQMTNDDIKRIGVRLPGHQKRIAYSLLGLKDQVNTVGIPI

IC50 (Ephrin type-A receptor 2)	IC50 (Ephrin type-B receptor 4)	IC50 [1]	IC50 [2]	Structure (SMILES)
50 to 1000 nM	< 50 nM	1000 to 20000 nM	50 to 1000 nM	COc1cc2c(Nc3ccc(Cl)c(Cl)c3C)ncnc2cc1OCC1CN(C)CCO1 (stereo not drawn)
< 50 nM	< 50 nM	< 50 nM	< 50 nM	CC(C)Oc1cc2c(Nc3ccc(Cl)c(Cl)c3)ncnc2cc1OCC1CNCCO1 (stereo not drawn)
< 50 nM	< 50 nM	< 50 nM	50 to 1000 nM	CCS(=O)(=O)N1CCOC(COc2cc3ncnc(Nc4ccc(Cl)c(Cl)c4)c3cc2OC)C1 (stereo not drawn)
50 to 1000 nM	< 50 nM	< 50 nM	< 50 nM	COc1cc2c(Nc3ccc(Cl)c(Cl)c3)ncnc2cc1OCC1CN(C)C(C)(C)CO1 (stereo not drawn)
50 to 1000 nM	50 to 1000 nM	50 to 1000 nM	50 to 1000 nM	COc1cc2c(Nc3ccc(Cl)c(Cl)c3)ncnc2cc1OCCC1CN(C)C(C)(C)CO1 (stereo not drawn)
1000 to 20000 nM	50 to 1000 nM	50 to 1000 nM	1000 to 20000 nM	COc1cc2c(Nc3ccc(Br)c(Cl)c3)ncnc2cc1O[C@H]1CO[C@H]2[C@@H]1OC[C@@H]2S(C)(=O)=O
1000 to 20000 nM	1000 to 20000 nM	1000 to 20000 nM	1000 to 20000 nM	COc1cc2c(Nc3ccc(Cl)c(Cl)c3N3CCN(C)CC3)ncnc2cc1O[C@H]1CO[C@H]2[C@@H]1OC[C@@H]2F
1000 to 20000 nM	1000 to 20000 nM	1000 to 20000 nM	1000 to 20000 nM	COc1cc2c(Nc3ccc(Cl)c(Cl)c3)ncnc2cc1OCCC1CN(C(=O)OC(C)(C)C)C(C)(C)CO1 (stereo not drawn)
< 50 nM	< 50 nM	50 to 1000 nM	< 50 nM	COc1cc2c(Nc3ccc(Br)c(Cl)c3)ncnc2cc1OCC1CN(C)CCO1 (stereo not drawn)
50 to 1000 nM	< 50 nM	< 50 nM	50 to 1000 nM	COc1cc2c(Nc3ccc(Cl)c(Cl)c3)ncnc2cc1OCC1CN(C(C)=O)CCCO1 (stereo not drawn)
< 50 nM	< 50 nM	< 50 nM	< 50 nM	COc1cc2c(Nc3ccc(Cl)c(Cl)c3F)ncnc2cc1OCC1CN(C)C(C)(C)CO1 (stereo not drawn)
50 to 1000 nM	< 50 nM	50 to 1000 nM	50 to 1000 nM	COc1cc2c(Nc3ccc(Br)c(Cl)c3Cl)ncnc2cc1OCC1CN(C)CCO1 (stereo not drawn)
< 50 nM	< 50 nM	< 50 nM	< 50 nM	COc1cc2c(Nc3ccc(Br)c(Cl)c3F)ncnc2cc1OCC1CN(C)C(C)(C)CO1 (stereo not drawn)
50 to 1000 nM	50 to 1000 nM	1000 to 20000 nM	50 to 1000 nM	COc1cc2c(Nc3ccc(Br)c(Cl)c3F)ncnc2cc1OC[C@@H]1CN(C)CC(=O)N1C
50 to 1000 nM	50 to 1000 nM	50 to 1000 nM	50 to 1000 nM	COc1cc2c(Nc3ccc(Cl)c(Cl)c3F)ncnc2cc1OC[C@@H]1CN(C)CC(=O)N1
1000 to 20000 nM	50 to 1000 nM	1000 to 20000 nM	1000 to 20000 nM	COc1cc2c(Nc3ccc(Br)c(Cl)c3)ncnc2cc1O[C@H]1CO[C@H]2[C@@H]1OC[C@@H]2OC(C)=O
1000 to 20000 nM	50 to 1000 nM	1000 to 20000 nM	1000 to 20000 nM	COc1cc2c(Nc3ccc(Br)c(Cl)c3)ncnc2cc1O[C@H]1CO[C@H]2[C@@H]1OC[C@@H]2N1CCN(C)CC1
50 to 1000 nM	< 50 nM	< 50 nM	50 to 1000 nM	COc1cc2c(Nc3ccc(Cl)c(Cl)c3)ncnc2cc1OCC1CN(CC(N)=O)CCO1 (stereo not drawn)
1000 to 20000 nM	50 to 1000 nM	1000 to 20000 nM	1000 to 20000 nM	COc1cc2c(Nc3ccc(Br)c(Cl)c3)ncnc2cc1O[C@H]1CO[C@H]2[C@@H]1OC[C@@H]2NC(C)=O
50 to 1000 nM	50 to 1000 nM	50 to 1000 nM	50 to 1000 nM	COc1cc2c(Nc3ccc(Br)c(Cl)c3C)ncnc2cc1OCC1CN(C)CCO1 (stereo not drawn)
50 to 1000 nM	50 to 1000 nM	1000 to 20000 nM	< 50 nM	COc1cc2c(Nc3ccc(C)c(Cl)c3Cl)ncnc2cc1OCC1CN(C)CCO1 (stereo not drawn)

IC50 (Ephrin type-A receptor 2)	IC50 (Ephrin type-B receptor 4)	IC50 [1]	IC50 [2]	Structure (SMILES)
50 to 1000 nM	50 to 1000 nM	1000 to 20000 nM	50 to 1000 nM	COc1cc2c(Nc3ccc(Cl)c(Cl)c3F)ncnc2cc1OC[C@@H]1CN(C)CC(=O)N1C
1000 to 20000 nM	50 to 1000 nM	1000 to 20000 nM	1000 to 20000 nM	COc1cc2c(Nc3ccc(Br)c(Cl)c3)ncnc2cc1O[C@H]1CO[C@H]2[C@@H]1OC[C@@H]2N
1000 to 20000 nM	1000 to 20000 nM	1000 to 20000 nM	1000 to 20000 nM	COc1cc2c(Nc3ccc(N4CCN(C)CC4)c(Cl)c3Cl)ncnc2cc1O[C@H]1CO[C@H]2[C@@H]1OC[C@@H]2F
< 50 nM	< 50 nM	50 to 1000 nM	< 50 nM	COc1cc2c(Nc3ccc(Cl)c(Cl)c3Cl)ncnc2cc1OCC1CN(C)CCO1 (stereo not drawn)
< 50 nM	< 50 nM	50 to 1000 nM	50 to 1000 nM	COc1cc2c(Nc3ccc(Br)c(Cl)c3Cl)ncnc2cc1OCC1CN(C)C(C)(C)CO1 (stereo not drawn)
< 50 nM	< 50 nM	< 50 nM	< 50 nM	CCOc1cc2c(Nc3ccc(Cl)c(Cl)c3)ncnc2cc1OCC1CN(C)CCO1 (stereo not drawn)
< 50 nM	< 50 nM	< 50 nM	50 to 1000 nM	COc1cc2c(Nc3ccc(Cl)c(Cl)c3)ncnc2cc1OCC1CN(/C(=N/C#N)N2CCCC2)CCO1 (stereo not drawn)
50 to 1000 nM	< 50 nM	< 50 nM	50 to 1000 nM	COc1cc2c(Nc3ccc(Cl)c(Cl)c3)ncnc2cc1OCc1nc2c(s1)CN(C)CC2
1000 to 20000 nM	50 to 1000 nM	50 to 1000 nM	50 to 1000 nM	COc1cc2c(Nc3ccc(Cl)c(Cl)c3)ncnc2cc1OCCC1CN(C)CC(C)(C)O1 (stereo not drawn)
50 to 1000 nM	< 50 nM	< 50 nM	< 50 nM	COc1cc2c(Nc3ccc(Cl)c(Cl)c3)ncnc2cc1OCC1CN(C(=O)c2cccnc2Cl)CCO1 (stereo not drawn)
50 to 1000 nM	50 to 1000 nM	50 to 1000 nM	< 50 nM	COc1cc2c(Nc3ccc(Br)c(F)c3F)ncnc2cc1OCC1CN(C)CCO1 (stereo not drawn)
1000 to 20000 nM	50 to 1000 nM	1000 to 20000 nM	50 to 1000 nM	CCN(CC)[C@H]1CO[C@H]2[C@@H]1OC[C@@H]2Oc1cc2ncnc(Nc3ccc(Br)c(Cl)c3)c2cc1OC
< 50 nM	< 50 nM	< 50 nM	< 50 nM	COc1cc2c(Nc3ccc(F)c(Cl)c3F)ncnc2cc1OCC1CN(C)CCO1 (stereo not drawn)
50 to 1000 nM	50 to 1000 nM	50 to 1000 nM	50 to 1000 nM	COc1cc2c(Nc3ccc(Cl)c(Cl)c3)ncnc2cc1OCc1csc(N2CCN(C)CC2)n1
50 to 1000 nM	< 50 nM	< 50 nM	50 to 1000 nM	COc1cc2c(Nc3cccc(Cl)c3F)ncnc2cc1OCC1CN(/C(N)=N/C#N)CCCO1 (stereo not drawn)
50 to 1000 nM	< 50 nM	50 to 1000 nM	50 to 1000 nM	COc1cc2c(Nc3cc(Cl)c(Cl)c(Cl)c3)ncnc2cc1OCC1CN(C)CCO1 (stereo not drawn)
50 to 1000 nM	< 50 nM	< 50 nM	50 to 1000 nM	COc1cc2c(Nc3ccc(Cl)c(Cl)c3)ncnc2cc1OCC1CN(C(=O)C2CCCC2)CCO1 (stereo not drawn)
50 to 1000 nM	< 50 nM	< 50 nM	50 to 1000 nM	CCN1CCc2nc(COc3cc4ncnc(Nc5ccc(Cl)c(Cl)c5)c4cc3OC)sc2C1
50 to 1000 nM	50 to 1000 nM	50 to 1000 nM	50 to 1000 nM	COc1cc2c(Nc3ccc(Br)c(Cl)c3F)ncnc2cc1OC[C@@H]1CN(C)CC(=O)N1
< 50 nM	< 50 nM	< 50 nM	< 50 nM	COc1cc2c(Nc3ccc(Cl)c(Cl)c3)ncnc2cc1OCC1CN(C(N)=NC#N)CCO1 (stereo not drawn)
< 50 nM	< 50 nM	< 50 nM	50 to 1000 nM	COc1cc2c(Nc3ccc(Cl)c(Cl)c3)ncnc2cc1OCC1CN(S(C)(=O)=O)CCO1 (stereo not drawn)
